Results taken from patent US20240299400A1, “Transcription Factor GLI1 Inhibitors and Uses Thereof” (University of Connecticut, priority 2023, published 2024).

What was measured:
GLI1 mRNA expression [1] = experiment: RT-qPCR GLI1 mRNA expression in Sufu-KO MEFs; assay type: cell-based, mouse; details: for IC50: Mus musculus, Ave ± SEM, read-out: RT-qPCR, IC50 Sufu-KO
Experimental: (§1) ASZ001 and Sufu-KO cells were seeded in 96-well plates (10,000/well, 100 μL) and incubated overnight under growth conditions. On the second day, ‘growth’ media was removed and replaced by ‘assay’ media (100 μL). On the third day, cells were treated with a serial dilution of drugs or DMSO for 48 h. mRNA expression was determined through Taqman Fast Cells-to-CT Kit (#4399003) per the manufacturer's instructions. In brief, cells were washed with chilled PBS, then mixed with lysis solution containing DNase I and incubated at RT for 5 min. Stop solution was then added to quench the lysis reagents. cDNA was then synthesized through a BioRad MyCycler following addition of reverse transcriptase. Finally, the cDNA was amplified through an ABI 7500 system following addition of Taqman Fast Universal PCR Master Mix and Taqman Gene Expression Primer. Relative gene expression levels were computed by the ΔΔCt method. Values represent mRNA expression relative to DMSO control (set at 1.0). Data were analyzed using GraphPad Prism, and IC50 values are the mean±SEM for at least two separate experiments performed in triplicate. Primers used are as follows: mouse ActB (Mm00607939_s1); mouse GLI1 (Mm00494645_ml); mouse Gli2 (Mm01293117_ml); mouse Ptch1 (Mm00436026_ml); mouse Hhip (Mm00469580_ml).

GLI1 mRNA expression [2] = experiment: RT-qPCR GLI1 mRNA expression in ASZ001 BCC cells; assay type: cell-based, mouse; details: Mus musculus, Ave ± SEM, read-out: RT-qPCR, IC50 ASZ001
Experimental: as §1

ASZ001 cells = experiment: MTS anti-proliferative assay in ASZ001 cells; assay type: cell-based, murine; details: Mus musculus, ASZ001, Ave ± SEM
Experimental: (§2) Cell viability was assessed by MTS proliferation assay kit (Promega) per manufacturer's protocol. Briefly, 2×10^4 cells were plated in a 96-well plate in 100 μL growth medium to make the cell population at ˜80% confluence. After 24 h, 1 μL drug solution was added to each well. DMSO was used as vehicle compound. After 48 h incubation (37° C., 5% CO2), 20 μL of freshly prepared 3-(4,5-dimethylthiazol-2-yl)-5-(3-carboxymethoxyphenyl)-2-(4-sulfophenyl)-2H-tetrazolium (MTS)/phenazine methosulfate (PMS) solution was added to each well, and the plate was returned to the incubator for 1 h. Absorbance at 490 nm was recorded, and the result was analyzed by GraphPad Prism 5. GI50 values represent mean±SEM for at least two separate experiments performed in triplicate.

DAOY (MB) = experiment: MTS anti-proliferative assay in DAOY cells; assay type: cell-based; details: Homo sapiens, Daoy; Table 8, 48 h, mean ± SEM
Experimental: as §2

PANC-1 (pancreatic) = experiment: MTS anti-proliferative assay in PANC-1 cells; assay type: cell-based; details: Homo sapiens, PANC-1; Table 8, 48 h, mean ± SEM
Experimental: as §2

GLI1-ZFD = molecular target: T1, GLI1-ZFD (Homo sapiens, UniProt P08151); experiment: Microscale thermophoresis (MST) binding to GLI1-ZFD; details: for binding to GLI1 (in words): MST binding assay
T1 construct: GLI1-ZFD Expression and Purification; made in house
T1 sequence (P08151 234-388 limits assumed): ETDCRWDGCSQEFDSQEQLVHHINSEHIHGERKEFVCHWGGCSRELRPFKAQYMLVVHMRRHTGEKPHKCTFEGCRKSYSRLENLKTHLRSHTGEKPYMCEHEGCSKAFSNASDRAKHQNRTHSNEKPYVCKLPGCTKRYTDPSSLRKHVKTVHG
Experimental: The protein expression and purification experiments followed the previous reported procedures [C. A. Maschinot, et al., Synthesis and evaluation of third generation vitamin D3 analogues as inhibitors of hedgehog signaling. Euro. J. Med. Chem. 162 (2019) 495-506].
GLI1 protein labeling was performed through the Monolith Protein Labeling Kit RED-NHS 2nd Generation (Nanotemper #MO-LO11) per the manufacturer's instructions. Briefly, GLI1 (100 μg, 1 mg/mL) underwent buffer exchange to remove incompatible ingredients like Tris or DTT. Proteins in the Labeling Buffer were incubated with freshly prepared dye (˜3-fold excess of dye) for 30 min at RT in the dark. Unreacted ‘free’ dye was removed by a gel-filtration column. Protein concentration and degree-of-labeling were calculated by measuring absorption at 280 nm and 650 nm. For each assay, 200 nM GLI1 in MST Buffer was mixed with compound dilution in DMSO (DMSO<5%, v/v). The mixture was then loaded to a capillary and the thermophoresis was subsequently determined through Monolith NT.115 station. Results were analyzed by MO.Affinity Analysis software and visualized by Graphpad Prism. MST Buffer: 50 mM HEPES, pH 8.3, 100 mM NaCl.

Row | IC50 (GLI1 mRNA expression [1]; Table 7, GLI1 mRNA) | IC50 (GLI1 mRNA expression [2]; ASZ001, Table 7, GLI1 mRNA) | SMILES | GI50 (ASZ001 cells; Table 7, 48 h) | also measured
1 | 5.6 ± 1.5 µM | 15.1 ± 4.1 µM | CCN(CC)c1cccc(C(Nc2ccccn2)c2ccc3ccc(C)nc3c2O)c1 (stereo not shown) [Compound 36, 7-((3-Diethylaminophenyl)(pyridin-2-ylamino)methyl)-2-methylquinolin-8-ol] | 82.5 ± 20.3 µM | –
2 | 5.3 ± 1.3 µM | 19.2 ± 5.5 µM | Cc1ccc2ccc(C(Nc3ccccn3)c3cccc(F)c3)c(O)c2n1 (stereo not shown) [Compound 37, 7-((3-Fluorophenyl)(pyridin-2-ylamino)methyl)-2-methylquinolin-8-ol] | 33.1 ± 9.1 µM | –
3 | 10.6 ± 2.6 µM | 19.3 ± 5 µM | CCNc1cccc(C(Nc2ccccn2)c2ccc3ccc(C)nc3c2O)c1 (stereo not shown) [Compound 38, 7-((3-Ethylaminophenyl)(pyridin-2-ylamino)methyl)-2-methylquinolin-8-ol] | > 100 µM | –
4 | 5.6 ± 0.9 µM | 17.3 ± 6.1 µM | Cc1ccc2ccc(C(Nc3ccccn3)c3ccc([N+](=O)[O-])cc3)c(O)c2n1 (stereo not shown) [Compound 40, 7-((4-Nitrophenyl)(pyridin-2-ylamino)methyl)-2-methylquinolin-8-ol] | 61.8 ± 27.5 µM | GI50 (DAOY (MB)): 75.2 ± 17.4 µM; GI50 (PANC-1 (pancreatic)): > 100 µM
5 | 3.5 ± 1 µM | 9.8 ± 1.3 µM | Cc1ccc2ccc(C(Nc3ccccn3)c3ccc(N)cc3)c(O)c2n1 (stereo not shown) [Compound 41, 7-((4-Aminophenyl)(pyridin-2-ylamino)methyl)-2-methylquinolin-8-ol] | > 100 µM | –
6 | 4.3 ± 0.8 µM | 15.4 ± 4.7 µM | Cc1ccc2ccc(C(Nc3ccccn3)c3ccc(N4CCc5ccccc54)cc3)c(O)c2n1 (stereo not shown) [Compound 46, 7-((4-(Indolin-1-yl)phenyl)(pyridin-2-ylamino)methyl)-2-methylquinolin-8-ol] | 67.9 ± 12.8 µM | –
7 | 1.7 ± 0.3 µM | 10.5 ± 3.2 µM | Cc1ccc2ccc(C(Nc3ccccn3)c3ccc(-n4ccc5ccccc54)cc3)c(O)c2n1 (stereo not shown) [Compound 47, 7-((4-(1H-indol-1-yl)phenyl)(pyridin-2-ylamino)methyl)-2-methylquinolin-8-ol] | 62.3 ± 13.5 µM | –
8 | 1.1 ± 0.4 µM | 14.2 ± 2.4 µM | Cc1ccc2ccc(C(Nc3ccccn3)c3ccc(-n4cccc4)cc3)c(O)c2n1 (stereo not shown) [Compound 49, 7-((4-(1H-Pyrrol-1-yl)phenyl)(pyridin-2-ylamino)methyl)-2-methylquinolin-8-ol] | 91.7 ± 21 µM | Kd (GLI1-ZFD; Table 7, Ave ± SEM): 28.5 ± 7.2 µM; GI50 (PANC-1 (pancreatic)): > 100 µM
9 | 3.8 ± 0.7 µM | > 25 µM | Cc1ccc2ccc(C(Nc3ccccn3)c3ccc(-n4ccnc4)cc3)c(O)c2n1 (stereo not shown) [Compound 50, 7-((4-(1H-Imidazol-1-yl)phenyl)(pyridin-2-ylamino)methyl)-2-methylquinolin-8-ol] | > 100 µM | Kd (GLI1-ZFD; Table 7, Ave ± SEM): 18.8 ± 5.2 µM
10 | 13.6 ± 3.5 µM | 5.3 ± 1.2 µM | Cc1ccc2ccc(C(Nc3ccccn3)c3ccc(-n4ccnc4C)cc3)c(O)c2n1 (stereo not shown) [Compound 51, 7-((4-(2-Methyl-1H-imidazol-1-yl)phenyl)(pyridin-2-ylamino)methyl)-2-methylquinolin-8-ol] | > 100 µM | –
11 | 1.5 ± 0.3 µM | 2.7 ± 0.9 µM | Cc1ccc2ccc(C(Nc3ccccn3)c3ccc(-n4cccn4)cc3)c(O)c2n1 (stereo not shown) [Compound 52, 7-((4-(1H-Pyrazol-1-yl)phenyl)(pyridin-2-ylamino)methyl)-2-methylquinolin-8-ol] | 37.2 ± 4.8 µM | Kd (GLI1-ZFD; Table 7, Ave ± SEM): 10.5 ± 4.4 µM

Further lines, the compound ahead of its results:

Row | SMILES | IC50 (GLI1 mRNA expression [1]; Table 7, GLI1 mRNA) | IC50 (GLI1 mRNA expression [2]; ASZ001, Table 7, GLI1 mRNA) | GI50 (ASZ001 cells; Table 7, 48 h) | also measured
12 | CCN(CC)c1ccc(C(Nc2ccccn2)c2ccc3cccnc3c2O)cc1 (stereo not shown) [Compound 15, 7-((4-Diethylaminophenyl)(pyridin-2-ylamino)methyl)quinolin-8-ol] | – | – | – | IC50 (GLI1 mRNA expression [1]; Table 5, GLI1 mRNA): 1.1 ± 0.3 µM; IC50 (GLI1 mRNA expression [2]; ASZ001, Table 5, GLI1 mRNA): 1.4 ± 0.4 µM; GI50 (ASZ001 cells; Table 5, 48 h): 12.2 ± 2 µM; GI50 (DAOY (MB)): 8.2 ± 1.6 µM; GI50 (PANC-1 (pancreatic)): 10 ± 1.1 µM
13 | CCN(CC)c1ccc(C(Nc2ccccn2)c2ccccc2O)cc1 (stereo not shown) [Compound 18, 2-((4-Diethylaminophenyl)(pyridin-2-ylamino)methyl)phenol] | – | – | – | IC50 (GLI1 mRNA expression [1]; Table 5, GLI1 mRNA): > 25 µM; IC50 (GLI1 mRNA expression [2]; ASZ001, Table 5, GLI1 mRNA): 15.2 ± 5 µM; Kd (GLI1-ZFD; Table 5, Ave ± SEM): > 125 µM; GI50 (ASZ001 cells; Table 5, 48 h): > 100 µM; GI50 (PANC-1 (pancreatic)): > 100 µM
14 | CCN(CC)c1ccc(C(Nc2ccccn2)c2ccc3ccc(C)nc3c2OC2CCCC2)cc1 (stereo not shown) [Compound 22, N-((4-Diethylaminophenyl)(8-cyclopentyloxy-2-methylquinolin-7-yl)methyl)pyridin-2-amine] | – | – | – | anti-GLI1 activity in Sufu-KO cells (in words) (GLI1 mRNA expression [1]): inactive; IC50 (GLI1 mRNA expression [1]; Table 5, GLI1 mRNA): > 25 µM; IC50 (GLI1 mRNA expression [2]; ASZ001, Table 5, GLI1 mRNA): 0.54 µM; binding to GLI1 (in words) (GLI1-ZFD): did not bind to GLI1; GI50 (ASZ001 cells; Table 5, 48 h): > 100 µM
15 | CCN(CC)c1ccc(C(NC)c2cc(C)c3ccc(C)nc3c2O)cc1 (stereo not shown) [Compound 29, 7-((4-(Diethylamino)phenyl)(methylamino)methyl)-2,5-dimethylquinolin-8-ol] | – | – | – | IC50 (GLI1 mRNA expression [1]; Table 6, GLI1 mRNA): > 25 µM; IC50 (GLI1 mRNA expression [2]; ASZ001, Table 6, GLI1 mRNA): 15.4 ± 2.2 µM; GI50 (ASZ001 cells; Table 6, 48 h): > 100 µM
16 | CCN(CC)c1ccc(C(Nc2cccnc2)c2ccc3ccc(C)nc3c2O)cc1 (stereo not shown) [Compound 30, 7-((4-(diethylamino)phenyl)(pyridin-3-ylamino)methyl)-2-methylquinolin-8-ol] | – | – | – | IC50 (GLI1 mRNA expression [1]; Table 6, GLI1 mRNA): 4.4 ± 1.9 µM; IC50 (GLI1 mRNA expression [2]; ASZ001, Table 6, GLI1 mRNA): 2.5 ± 0.8 µM; GI50 (ASZ001 cells; Table 6, 48 h): 81.4 ± 10.7 µM
17 | CCN(CC)c1ccc(C(Nc2ccncc2)c2ccc3ccc(C)nc3c2O)cc1 (stereo not shown) [Compound 31, 7-((4-(diethylamino)phenyl)(pyridin-4-ylamino)methyl)-2-methylquinolin-8-ol] | – | – | – | IC50 (GLI1 mRNA expression [1]; Table 6, GLI1 mRNA): > 25 µM; IC50 (GLI1 mRNA expression [2]; ASZ001, Table 6, GLI1 mRNA): 21.4 ± 6.7 µM; GI50 (ASZ001 cells; Table 6, 48 h): > 100 µM
18 | Cc1ccc2c(C)cc(C(C)Nc3ccccn3)c(O)c2n1 (stereo not shown) [Compound 32, 2,5-Dimethyl-7-(1-(pyridin-2-ylamino)ethyl)quinolin-8-ol] | 4.8 ± 1.4 µM | 5.3 ± 1.7 µM | 29.8 ± 4 µM | –
19 | Cc1ccc2c(C)cc(C(C)Nc3ccccc3)c(O)c2n1 (stereo not shown) [Compound 33, 2,5-Dimethyl-7-(1-(phenylamino)ethyl)quinolin-8-ol] | 8.8 ± 2.7 µM | 7.1 ± 2 µM | 29.5 ± 5.1 µM | GI50 (PANC-1 (pancreatic)): 56.3 ± 9.4 µM
20 | CCN(CC)c1ccccc1C(Nc1ccccn1)c1ccc2ccc(C)nc2c1O (stereo not shown) [Compound 35, 7-((2-Diethylaminophenyl)(pyridin-2-ylamino)methyl)-2-methylquinolin-8-ol] | 9 ± 2.2 µM | 15.8 ± 6.3 µM | 29.3 ± 4.9 µM | binding to GLI1 (in words) (GLI1-ZFD): do not bind GLI1; Kd (GLI1-ZFD; Table 7, Ave ± SEM): > 125 µM
21 | COc1c(C(Nc2ccccn2)c2ccc(N3CCCC3=O)cc2)ccc2ccc(C)nc12 (stereo not shown) [Compound 53, 1-(4-((8-Methoxy-2-methylquinolin-7-yl)(pyridin-2-ylamino)methyl)phenyl)pyrrolidin-2-one] | > 25 µM | 0.77 ± 0.03 µM | 42.9 ± 12.2 µM | –
22 | CS(=O)(=O)c1ccc(C(=O)Nc2ccc(Cl)c(-c3ccccn3)c2)c(Cl)c1 [GDC-0449, reference compound] | – | – | – | IC50 (GLI1 mRNA expression [1]; Table 5, GLI1 mRNA): > 25 µM; IC50 (GLI1 mRNA expression [2]; ASZ001, Table 5, GLI1 mRNA): 0.04 ± 0.01 µM; GI50 (ASZ001 cells; Table 5, 48 h): 73.6 ± 13.7 µM; GI50 (PANC-1 (pancreatic)): 80.7 ± 14.2 µM
